In patent US10231954B2, “Neurodegenerative therapies” (LYTIX BIOPHARMA AS, priority 2014, dated 2019):

Key:
Type in all cases: biochemical
TLK1 = target: T1, TLK1 (Homo sapiens, UniProt Q9UKI8); experiment: Kinase profiling TLK1; settings: 100 micromolar inhibitor concentration, 100 is no change; for remaining activity at 100 µM: read-out: residual kinase activity, TLK1
T1 sequence (Q9UKI8 1-766): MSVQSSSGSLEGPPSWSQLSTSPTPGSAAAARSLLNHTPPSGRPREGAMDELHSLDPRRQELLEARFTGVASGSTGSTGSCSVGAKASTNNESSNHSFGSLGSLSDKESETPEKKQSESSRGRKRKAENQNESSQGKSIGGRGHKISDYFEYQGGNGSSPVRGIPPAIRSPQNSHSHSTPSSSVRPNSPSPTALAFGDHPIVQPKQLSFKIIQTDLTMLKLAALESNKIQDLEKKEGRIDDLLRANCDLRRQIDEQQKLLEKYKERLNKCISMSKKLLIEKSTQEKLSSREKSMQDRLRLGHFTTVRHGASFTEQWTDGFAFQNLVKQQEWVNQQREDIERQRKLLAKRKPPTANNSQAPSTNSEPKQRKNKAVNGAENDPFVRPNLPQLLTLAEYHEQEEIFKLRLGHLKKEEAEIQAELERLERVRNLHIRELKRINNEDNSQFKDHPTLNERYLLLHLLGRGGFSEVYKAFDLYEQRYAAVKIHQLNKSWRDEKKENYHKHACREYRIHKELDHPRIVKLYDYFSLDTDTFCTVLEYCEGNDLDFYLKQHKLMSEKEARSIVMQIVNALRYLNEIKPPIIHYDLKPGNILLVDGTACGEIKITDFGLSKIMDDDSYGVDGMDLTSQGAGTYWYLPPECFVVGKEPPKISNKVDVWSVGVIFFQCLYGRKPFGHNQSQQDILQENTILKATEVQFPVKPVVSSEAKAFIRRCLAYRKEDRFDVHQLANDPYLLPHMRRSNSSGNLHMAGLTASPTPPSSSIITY
Source text: (§1) Any value less that 25 is considered to be highly significant inhibition.

TTBK2 = TTBK2 (Homo sapiens, UniProt Q6IQ55); experiment: Kinase profiling TTBK2; settings: 100 micromolar inhibitor concentration, 100 is no change; for remaining activity at 100 µM: read-out: residual kinase activity, TTBK2
Chain of TTBK2 (Q6IQ55 whole entry, species assumed): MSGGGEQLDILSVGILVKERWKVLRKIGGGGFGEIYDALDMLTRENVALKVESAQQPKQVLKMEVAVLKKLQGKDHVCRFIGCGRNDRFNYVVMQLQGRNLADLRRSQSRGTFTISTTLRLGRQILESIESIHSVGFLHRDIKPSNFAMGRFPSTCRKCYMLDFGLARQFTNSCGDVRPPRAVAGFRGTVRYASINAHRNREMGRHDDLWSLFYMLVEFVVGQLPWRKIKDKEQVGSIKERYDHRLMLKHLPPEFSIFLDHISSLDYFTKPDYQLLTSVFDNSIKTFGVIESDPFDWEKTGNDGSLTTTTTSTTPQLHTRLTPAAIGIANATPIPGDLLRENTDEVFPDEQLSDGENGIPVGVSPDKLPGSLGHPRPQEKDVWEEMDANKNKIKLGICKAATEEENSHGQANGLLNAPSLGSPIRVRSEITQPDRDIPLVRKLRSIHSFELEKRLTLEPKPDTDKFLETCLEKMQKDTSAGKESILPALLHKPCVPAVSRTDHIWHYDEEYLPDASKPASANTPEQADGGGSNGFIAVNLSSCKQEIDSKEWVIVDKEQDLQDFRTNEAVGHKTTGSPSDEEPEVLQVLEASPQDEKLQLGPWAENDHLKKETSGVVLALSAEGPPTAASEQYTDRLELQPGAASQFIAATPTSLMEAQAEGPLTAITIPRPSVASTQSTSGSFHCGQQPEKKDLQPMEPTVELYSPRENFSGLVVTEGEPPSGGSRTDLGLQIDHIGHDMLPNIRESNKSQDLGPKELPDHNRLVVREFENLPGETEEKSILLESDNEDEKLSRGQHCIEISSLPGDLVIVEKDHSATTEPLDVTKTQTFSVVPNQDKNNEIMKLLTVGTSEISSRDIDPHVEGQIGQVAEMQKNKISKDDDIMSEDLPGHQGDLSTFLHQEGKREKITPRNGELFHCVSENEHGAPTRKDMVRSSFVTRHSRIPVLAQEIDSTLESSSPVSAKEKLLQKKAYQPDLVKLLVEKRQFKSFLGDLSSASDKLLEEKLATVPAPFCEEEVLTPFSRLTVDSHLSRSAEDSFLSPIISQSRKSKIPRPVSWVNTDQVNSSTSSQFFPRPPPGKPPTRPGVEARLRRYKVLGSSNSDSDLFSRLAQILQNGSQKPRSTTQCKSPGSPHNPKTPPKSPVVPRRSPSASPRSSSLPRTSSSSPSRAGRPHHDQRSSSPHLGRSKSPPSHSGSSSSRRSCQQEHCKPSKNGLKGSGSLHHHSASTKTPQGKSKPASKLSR
Source text: as §1

PIM2 = PIM2 (Homo sapiens, UniProt Q9P1W9); experiment: Kinase profiling PIM2; settings: 100 micromolar inhibitor concentration, 100 is no change; for remaining activity at 100 µM: read-out: residual kinase activity, PIM2
Chain of PIM2 (Q9P1W9 whole entry, species assumed): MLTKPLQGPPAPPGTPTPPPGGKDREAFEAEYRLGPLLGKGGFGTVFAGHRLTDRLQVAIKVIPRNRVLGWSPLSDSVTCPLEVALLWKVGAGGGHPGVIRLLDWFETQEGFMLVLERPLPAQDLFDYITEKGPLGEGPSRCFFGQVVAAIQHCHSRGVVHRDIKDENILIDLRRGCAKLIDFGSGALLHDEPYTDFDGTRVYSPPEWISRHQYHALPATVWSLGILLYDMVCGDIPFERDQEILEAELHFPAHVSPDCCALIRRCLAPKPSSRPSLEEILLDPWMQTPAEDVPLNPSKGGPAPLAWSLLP
Source text: as §1

CDK2-Cyclin A = CDK2-Cyclin A (Homo sapiens, UniProt P24941); experiment: Kinase profiling CDK2-Cyclin A; settings: 100 micromolar inhibitor concentration, 100 is no change; for remaining activity at 100 µM: read-out: residual kinase activity, CDK2-Cyclin A
Source text: as §1

DDR2 = target: T2, DDR2 (Homo sapiens, UniProt Q16832); experiment: Kinase profiling DDR2; settings: 100 micromolar inhibitor concentration, 100 is no change; for remaining activity at 100 µM: read-out: residual kinase activity, DDR2
T2 sequence (Q16832 22-855): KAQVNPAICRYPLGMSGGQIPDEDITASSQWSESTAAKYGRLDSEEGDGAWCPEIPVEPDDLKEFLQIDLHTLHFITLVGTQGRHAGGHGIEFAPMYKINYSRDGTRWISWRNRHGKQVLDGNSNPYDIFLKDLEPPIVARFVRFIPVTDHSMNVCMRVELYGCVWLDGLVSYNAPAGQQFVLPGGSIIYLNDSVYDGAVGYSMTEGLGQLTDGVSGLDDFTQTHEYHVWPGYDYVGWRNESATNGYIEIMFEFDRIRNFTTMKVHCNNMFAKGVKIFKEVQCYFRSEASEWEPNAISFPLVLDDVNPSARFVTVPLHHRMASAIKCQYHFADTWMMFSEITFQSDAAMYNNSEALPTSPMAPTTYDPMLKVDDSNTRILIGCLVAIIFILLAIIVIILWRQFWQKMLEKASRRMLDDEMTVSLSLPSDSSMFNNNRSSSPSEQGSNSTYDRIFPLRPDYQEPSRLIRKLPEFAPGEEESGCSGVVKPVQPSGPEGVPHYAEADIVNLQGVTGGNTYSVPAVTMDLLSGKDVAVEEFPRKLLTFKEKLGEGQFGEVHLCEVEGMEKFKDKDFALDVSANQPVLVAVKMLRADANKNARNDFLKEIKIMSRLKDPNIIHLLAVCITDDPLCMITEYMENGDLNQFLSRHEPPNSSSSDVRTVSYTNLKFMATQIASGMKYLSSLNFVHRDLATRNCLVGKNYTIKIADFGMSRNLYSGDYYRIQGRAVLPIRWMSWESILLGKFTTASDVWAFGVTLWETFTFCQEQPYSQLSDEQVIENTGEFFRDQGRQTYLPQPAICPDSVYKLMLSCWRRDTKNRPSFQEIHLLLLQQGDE
Source text: as §1

MAP4K5 = MAP4K5 (Homo sapiens, UniProt Q9Y4K4); experiment: Kinase profiling MAP4K5; settings: 100 micromolar inhibitor concentration, 100 is no change; for remaining activity at 100 µM: read-out: residual kinase activity, MAP4K5
Chain of MAP4K5 (Q9Y4K4 whole entry, species assumed): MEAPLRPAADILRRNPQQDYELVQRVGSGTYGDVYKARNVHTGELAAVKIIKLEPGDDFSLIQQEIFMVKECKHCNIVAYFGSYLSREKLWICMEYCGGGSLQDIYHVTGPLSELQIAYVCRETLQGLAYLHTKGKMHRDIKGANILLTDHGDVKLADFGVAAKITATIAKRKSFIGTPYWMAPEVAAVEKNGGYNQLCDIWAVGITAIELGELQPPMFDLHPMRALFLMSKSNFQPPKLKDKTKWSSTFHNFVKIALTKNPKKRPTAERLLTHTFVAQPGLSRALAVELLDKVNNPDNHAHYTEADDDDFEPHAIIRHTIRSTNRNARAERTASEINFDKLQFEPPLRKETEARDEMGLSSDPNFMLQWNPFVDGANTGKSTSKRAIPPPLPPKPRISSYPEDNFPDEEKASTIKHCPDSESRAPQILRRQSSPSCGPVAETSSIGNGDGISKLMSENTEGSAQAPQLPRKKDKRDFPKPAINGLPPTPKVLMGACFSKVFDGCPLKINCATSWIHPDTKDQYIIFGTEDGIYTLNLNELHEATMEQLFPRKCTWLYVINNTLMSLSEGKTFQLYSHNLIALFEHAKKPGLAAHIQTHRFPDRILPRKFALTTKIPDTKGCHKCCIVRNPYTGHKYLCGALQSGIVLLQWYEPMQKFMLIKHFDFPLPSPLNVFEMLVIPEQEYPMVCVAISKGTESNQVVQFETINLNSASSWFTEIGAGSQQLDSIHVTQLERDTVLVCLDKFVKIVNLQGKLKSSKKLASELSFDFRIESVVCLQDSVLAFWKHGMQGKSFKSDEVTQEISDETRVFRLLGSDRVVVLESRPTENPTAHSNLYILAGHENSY
Source text: as §1

NUAK1 = target: T3, NUAK1 (Homo sapiens, UniProt O60285); experiment: Kinase profiling NUAK1; settings: 100 micromolar inhibitor concentration, 100 is no change; for remaining activity at 100 µM: read-out: residual kinase activity, NUAK1
T3 sequence (O60285 1-661): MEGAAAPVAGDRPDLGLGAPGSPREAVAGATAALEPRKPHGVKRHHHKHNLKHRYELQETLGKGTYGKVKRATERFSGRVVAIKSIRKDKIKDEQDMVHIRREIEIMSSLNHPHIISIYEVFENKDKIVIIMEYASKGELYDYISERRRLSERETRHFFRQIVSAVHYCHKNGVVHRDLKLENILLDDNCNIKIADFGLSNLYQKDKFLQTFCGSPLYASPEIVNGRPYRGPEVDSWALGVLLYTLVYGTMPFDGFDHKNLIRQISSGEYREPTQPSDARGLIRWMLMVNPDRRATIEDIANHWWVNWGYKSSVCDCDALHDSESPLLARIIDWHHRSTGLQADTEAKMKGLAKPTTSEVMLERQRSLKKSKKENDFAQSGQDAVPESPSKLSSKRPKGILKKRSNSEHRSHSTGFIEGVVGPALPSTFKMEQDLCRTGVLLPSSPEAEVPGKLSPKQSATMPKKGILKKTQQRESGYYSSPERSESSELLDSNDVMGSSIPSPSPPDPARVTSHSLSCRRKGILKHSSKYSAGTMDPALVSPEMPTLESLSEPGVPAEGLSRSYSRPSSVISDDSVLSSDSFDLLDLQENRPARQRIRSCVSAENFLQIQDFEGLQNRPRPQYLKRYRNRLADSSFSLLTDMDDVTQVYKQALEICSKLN
Source text: as §1

PAK6 = PAK6 (Homo sapiens, UniProt Q9NQU5); experiment: Kinase profiling PAK6; settings: 100 micromolar inhibitor concentration, 100 is no change; for remaining activity at 100 µM: read-out: residual kinase activity, PAK6
Source text: as §1

ABL = ABL (Homo sapiens, UniProt P00519); experiment: Kinase profiling ABL; settings: 100 micromolar inhibitor concentration, 100 is no change; for remaining activity at 100 µM: read-out: residual kinase activity, ABL
Chain of ABL (P00519 whole entry, species assumed): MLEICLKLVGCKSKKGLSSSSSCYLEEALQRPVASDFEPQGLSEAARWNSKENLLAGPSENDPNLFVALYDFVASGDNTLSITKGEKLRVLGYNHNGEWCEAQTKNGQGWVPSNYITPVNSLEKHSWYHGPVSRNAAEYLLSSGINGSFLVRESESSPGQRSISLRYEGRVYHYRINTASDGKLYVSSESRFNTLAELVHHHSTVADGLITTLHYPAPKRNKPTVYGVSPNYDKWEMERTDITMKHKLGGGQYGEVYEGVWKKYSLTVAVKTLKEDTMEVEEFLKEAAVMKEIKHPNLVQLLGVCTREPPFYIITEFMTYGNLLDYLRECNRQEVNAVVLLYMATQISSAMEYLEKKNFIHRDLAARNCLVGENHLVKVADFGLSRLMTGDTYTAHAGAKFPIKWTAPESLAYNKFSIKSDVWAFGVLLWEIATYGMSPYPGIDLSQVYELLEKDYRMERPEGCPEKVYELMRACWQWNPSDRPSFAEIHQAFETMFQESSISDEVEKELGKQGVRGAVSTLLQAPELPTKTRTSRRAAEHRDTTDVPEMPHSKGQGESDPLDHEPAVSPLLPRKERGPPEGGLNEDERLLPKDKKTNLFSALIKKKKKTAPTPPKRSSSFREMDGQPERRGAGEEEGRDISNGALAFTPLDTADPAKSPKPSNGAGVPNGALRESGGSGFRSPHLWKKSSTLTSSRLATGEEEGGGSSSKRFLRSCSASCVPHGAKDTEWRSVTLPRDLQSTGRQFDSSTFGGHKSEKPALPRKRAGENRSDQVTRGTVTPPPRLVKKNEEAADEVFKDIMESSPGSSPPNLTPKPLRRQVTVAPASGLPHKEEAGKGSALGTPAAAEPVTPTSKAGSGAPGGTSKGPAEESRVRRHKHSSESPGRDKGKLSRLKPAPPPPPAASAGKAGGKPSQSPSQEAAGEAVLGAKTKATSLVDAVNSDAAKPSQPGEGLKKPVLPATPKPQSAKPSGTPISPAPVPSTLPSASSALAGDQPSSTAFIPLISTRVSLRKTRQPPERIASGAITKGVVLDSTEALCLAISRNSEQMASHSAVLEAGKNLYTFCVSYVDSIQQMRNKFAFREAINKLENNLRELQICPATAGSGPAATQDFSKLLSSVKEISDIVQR
Source text: as §1

EPH-A4 = EPH-A4 (Homo sapiens, UniProt P54764); experiment: Kinase profiling EPH-A4; settings: 100 micromolar inhibitor concentration, 100 is no change; for remaining activity at 100 µM: read-out: residual kinase activity, EPH-A4
Chain of EPH-A4 (P54764 20-986, species assumed): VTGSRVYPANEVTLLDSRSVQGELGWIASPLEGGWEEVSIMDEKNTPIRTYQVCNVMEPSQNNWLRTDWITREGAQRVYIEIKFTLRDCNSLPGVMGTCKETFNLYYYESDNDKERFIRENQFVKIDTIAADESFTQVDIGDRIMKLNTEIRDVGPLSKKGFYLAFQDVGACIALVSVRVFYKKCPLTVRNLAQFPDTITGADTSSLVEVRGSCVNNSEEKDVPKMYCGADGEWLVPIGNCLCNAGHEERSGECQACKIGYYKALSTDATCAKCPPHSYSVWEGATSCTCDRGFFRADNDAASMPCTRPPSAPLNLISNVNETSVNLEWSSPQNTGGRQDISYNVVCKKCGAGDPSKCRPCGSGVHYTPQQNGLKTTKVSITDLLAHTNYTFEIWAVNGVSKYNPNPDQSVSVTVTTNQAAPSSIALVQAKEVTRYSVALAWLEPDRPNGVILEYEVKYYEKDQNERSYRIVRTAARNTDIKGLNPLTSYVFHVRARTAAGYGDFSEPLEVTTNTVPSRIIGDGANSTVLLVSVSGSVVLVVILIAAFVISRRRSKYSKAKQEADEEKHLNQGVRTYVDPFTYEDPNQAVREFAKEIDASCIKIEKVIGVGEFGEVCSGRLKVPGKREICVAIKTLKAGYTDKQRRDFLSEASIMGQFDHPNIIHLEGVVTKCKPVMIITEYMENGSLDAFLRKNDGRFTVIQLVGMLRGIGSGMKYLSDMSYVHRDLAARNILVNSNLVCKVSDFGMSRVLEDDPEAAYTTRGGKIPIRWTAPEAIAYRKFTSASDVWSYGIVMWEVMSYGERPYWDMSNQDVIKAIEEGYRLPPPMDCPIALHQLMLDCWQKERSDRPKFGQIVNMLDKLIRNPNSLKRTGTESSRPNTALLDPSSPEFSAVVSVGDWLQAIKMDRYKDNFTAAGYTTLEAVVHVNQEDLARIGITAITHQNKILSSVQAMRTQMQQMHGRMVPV
Source text: as §1

MST4 = MST4 (Homo sapiens, UniProt Q9P289); experiment: Kinase profiling MST4; settings: 100 micromolar inhibitor concentration, 100 is no change; for remaining activity at 100 µM: read-out: residual kinase activity, MST4
Chain of MST4 (Q9P289 whole entry, species assumed): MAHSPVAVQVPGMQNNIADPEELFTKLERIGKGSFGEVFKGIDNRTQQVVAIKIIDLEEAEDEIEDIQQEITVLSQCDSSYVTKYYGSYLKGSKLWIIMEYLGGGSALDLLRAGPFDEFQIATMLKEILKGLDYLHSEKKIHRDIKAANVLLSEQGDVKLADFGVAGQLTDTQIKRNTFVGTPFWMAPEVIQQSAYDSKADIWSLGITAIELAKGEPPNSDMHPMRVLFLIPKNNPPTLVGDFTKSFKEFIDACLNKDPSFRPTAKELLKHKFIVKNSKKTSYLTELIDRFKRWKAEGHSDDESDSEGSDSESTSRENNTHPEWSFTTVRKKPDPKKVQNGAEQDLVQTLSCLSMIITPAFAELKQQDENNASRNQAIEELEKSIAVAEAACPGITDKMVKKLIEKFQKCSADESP
Source text: as §1

MST3 = MST3 (Homo sapiens, UniProt Q9Y6E0); experiment: Kinase profiling MST3; settings: 100 micromolar inhibitor concentration, 100 is no change; for remaining activity at 100 µM: read-out: residual kinase activity, MST3
Source text: as §1

Row | Structure (SMILES) | residual kinase activity, TLK1 (TLK1) | residual kinase activity, TTBK2 (TTBK2) | residual kinase activity, PIM2 (PIM2) | residual kinase activity, CDK2-Cyclin A (CDK2-Cyclin A) | residual kinase activity, DDR2 (DDR2) | residual kinase activity, MAP4K5 (MAP4K5) | residual kinase activity, NUAK1 (NUAK1) | residual kinase activity, PAK6 (PAK6) | residual kinase activity, ABL (ABL) | residual kinase activity, EPH-A4 (EPH-A4) | residual kinase activity, MST4 (MST4) | residual kinase activity, MST3 (MST3) | other results
1 | O=C(Nc1nc2ccc(O)cc2s1)c1ccccn1 [Compound 03-12] | 96 | 102 | 75 | 87 | 104 | 74 | 52 | 101 | 113 | 78 | 80 | 85 | 
2 | O=C(Nc1nc2cc(O)ccc2s1)c1ccccn1 [Compound 03-13] | 99 | 71 | 77 | 91 | 85 | 50 | 64 | 99 | 71 | 89 | 76 | 78 | 
3 | COc1ccc2sc(NC(C)=O)nc2c1 [Compound 03-21] |  |  |  |  |  |  |  |  |  |  |  |  | remaining activity at 100 µM (TLK1): 97%; remaining activity at 100 µM (TTBK2): 84%; remaining activity at 100 µM (PIM2): 48%; remaining activity at 100 µM (CDK2-Cyclin A): 93%; remaining activity at 100 µM (DDR2): 102%; remaining activity at 100 µM (MAP4K5): 96%; remaining activity at 100 µM (NUAK1): 84%; remaining activity at 100 µM (PAK6): 108%; remaining activity at 100 µM (ABL): 111%; remaining activity at 100 µM (EPH-A4): 98%; remaining activity at 100 µM (MST4): 88%; remaining activity at 100 µM (MST3): 91%
4 | CC(=O)Nc1nc2ccccc2s1 [Compound 03-32] | 92 | 85 | 100 | 76 | 97 | 95 | 74 | 92 | 86 | 111 | 110 | 87 | 
5 | O=C(Nc1nc2cc(O)ccc2s1)c1cccnc1 [Compound 03-33] | 97 | 102 | 69 | 92 | 109 | 58 | 68 | 119 | 105 | 92 | 103 | 90 | 
6 | O=C(Nc1nc2ccc(O)cc2s1)c1ccccc1 [Compound 03-60] | 74 | 44 | 67 | 78 | 112 | 31 | 14 | 104 | 54 | 87 | 71 | 54 | 
7 | CC(=O)Nc1nc2cc(C(F)(F)F)ccc2s1 [Compound 03-73] |  |  |  |  |  |  |  |  |  |  |  |  | remaining activity at 100 µM (TLK1): 103%; remaining activity at 100 µM (TTBK2): 91%; remaining activity at 100 µM (PIM2): 63%; remaining activity at 100 µM (CDK2-Cyclin A): 96%; remaining activity at 100 µM (DDR2): 111%; remaining activity at 100 µM (MAP4K5): 73%; remaining activity at 100 µM (NUAK1): 74%; remaining activity at 100 µM (PAK6): 11%; remaining activity at 100 µM (ABL): 109%; remaining activity at 100 µM (EPH-A4): 103%; remaining activity at 100 µM (MST4): 91%; remaining activity at 100 µM (MST3): 89%
